SMILES strings stand for the structures.

One may read the EC50 as the midpoint of the concentration-response curve.

Chain of RIPK1 (Q13546 1-327): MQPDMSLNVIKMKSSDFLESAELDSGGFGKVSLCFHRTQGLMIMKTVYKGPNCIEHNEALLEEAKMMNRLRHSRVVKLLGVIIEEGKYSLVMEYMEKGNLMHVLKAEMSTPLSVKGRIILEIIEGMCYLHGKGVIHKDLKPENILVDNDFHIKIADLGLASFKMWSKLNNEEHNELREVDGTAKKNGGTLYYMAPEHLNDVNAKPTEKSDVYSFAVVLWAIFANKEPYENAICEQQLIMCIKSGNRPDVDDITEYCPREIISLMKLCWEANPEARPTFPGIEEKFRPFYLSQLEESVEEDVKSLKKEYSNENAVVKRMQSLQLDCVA

This test has as its target RIPK1 (Homo sapiens (Human), UniProt Q13546). Description: RIPK1-ADP-Glo Enzymatic Assay. Type of test: biochemical. The following applies: recombinant GST-RIPK1 kinase domain (residues 1-327), 25 nM, ten-point titration, 30 minutes pre-incubation. The gist of the method: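 GST-RIPK1 kinase domain (residues 1-327, Sf21-expressed; 25 nM final) was pre-incubated 30 min at ambient temperature with compound (10-point 1:3 series from 100000 nM, 1% DMSO) in HEPES pH 7.3 buffer with 20 mM MgCl2. The reaction was started with 900 μM ATP (addition solution) and 3 μM dephosphorylated MBP and ran 150 min. Read-out was ADP-Glo luminescence, with EC50 from a four-parameter fit.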
With `O=C(c1cccc(F)c1)N1CCC2(CC1)CN1CC[C@@H](c3cc(F)cc(F)c3)N1C2=O` [Example 4.25, (S)-7′-(3,5-difluorophenyl)-1-(3-fluorobenzoyl) dihydro-1′H,3′H,5′H-spiro[piperidine-4,2′-pyrazolo[1,2-a]pyrazol]-l′-one], the EC50 was determined as 35 nM.
In the case of `Cc1cc(N2CCC3(CC2)CN2CC[C@@H](c4cc(F)cc(F)c4)N2C3=O)nc(C(F)(F)F)n1` [Example 1.44, (S)-7′-(3,5-difluorophenyl)-1-(6-methyl-2-(trifluoromethyl)pyrimidin-4-yl)dihydro-1′H,3′H,5′H-spiro[piperidine-4,2′-pyrazolo[1,2-a]pyrazol]-1′-one] it was 274 nM; in that of `O=C(c1cc(F)c(F)cc1F)N1CCC2(CC1)CN1CC[C@@H](c3cc(F)cc(F)c3)N1C2=O` [Example 4.11, (S)-7′-(3,5-difluorophenyl)-1-(2,4,5-trifluorobenzoyl) dihydro-1′H,3′H,5′H-spiro[piperidine-4,2′-pyrazolo[1,2-a]pyrazol]-l′-one], 19 nM; in that of `Cc1cc(N2CCC3(CC2)CN2CC[C@@H](c4cc(F)cc(F)c4)N2C3=O)nc(C#N)n1` [Example 1.16, (S)-4-(7′-(3,5-difluorophenyl)-1′-oxodihydro-1′H,3′H,5′H-spiro[piperidine-4,2′-pyrazolo[1,2-a]pyrazol]-1-yl)-6-methylpyrimidine-2-carbonitrile], 67 nM.
Take `O=C1N2[C@H](c3cc(F)cc(F)c3)CCN2CC12CCN(c1cc(Br)cc(F)n1)CC2` [Example 1.60, (S)-1-(4-bromo-6-fluoropyridin-2-yl)-7′-(3,5-difluorophenyl)dihydro-1′H,3′H,5′H-spiro[piperidine-4,2′-pyrazolo[1,2-a]pyrazol]-1′-one]: the EC50 was 17 nM.
The result for `O=C1N2[C@H](c3cc(F)cc(F)c3)CCN2CC12CCN(c1cnnc(Cl)c1)CC2` [Example 1.96, (S)-1-(6-chloropyridazin-4-yl)-7′-(3,5-difluorophenyl)dihydro-1′H,3′H,5′H-spiro[piperidine-4,2′-pyrazolo[1,2-a]pyrazol]-1′-one] reads 571 nM; that for `O=C1N2[C@H](c3cc(F)cc(F)c3)CCN2CC12CCN(c1ccc(Cl)nn1)CC2` [Example 1.34, (S)-1-(6-chloropyridazin-3-yl)-7′-(3,5-difluorophenyl)dihydro-1′H,3′H,5′H-spiro[piperidine-4,2′-pyrazolo[1,2-a]pyrazol]-1′-one], 457 nM; that for `CCc1nccc(N2CCC3(CC2)CN2CC[C@@H](c4cc(F)cc(F)c4)N2C3=O)n1` [Example 1.20, (S)-7′-(3,5-difluorophenyl)-1-(2-ethylpyrimidin-4-yl)dihydro-1′H,3′H,5′H-spiro[piperidine-4,2′-pyrazolo[1,2-a]pyrazol]-1′-one], 159 nM.
For the molecule `O=C1N2[C@H](c3cc(F)cc(F)c3)CCN2CC12CCN(c1cnc(-c3ccc(Cl)cc3)cn1)CC2` [Example 2.18, (S)-1-(5-(4-chlorophenyl)pyrazin-2-y1)-7′-(3,5-difluorophenyl)dihydro-1′H,3′H,5′H-spiro[piperidine-4,2′-pyrazolo[1,2-a]pyrazol]-1′-one], the EC50 was 152 nM.
The result for `O=C1N2[C@H](c3cc(F)cc(F)c3)CCN2CC12CCN(c1cccc(F)n1)CC2` [Example 1.12, (7′S)-7′-(3,5-difluorophenyl)-1-(6-fluoropyridin-2-yl)dihydro-1′H,3′H,5′H-spiro[piperidine-4,2′-pyrazolo[1,2-a]pyrazol]-1′-one] reads 29 nM; that for `Cc1ccc(C(=O)N2CCC3(CC2)CN2CC[C@@H](c4cc(F)cc(F)c4)N2C3=O)cc1` [Example 4.3, (S)-7′-(3,5-difluorophenyl)-1-(4-methylbenzoyl)dihydro-1′H,3′H,5′H-spiro[piperidine-4,2′-pyrazolo[1,2-a]pyrazol]-l′-one], 38 nM; that for `O=C1N2[C@H](c3cc(F)cc(F)c3)CCN2CC12CCN(c1ccc(Br)c3ccnn13)CC2` [Example 2.1], 7.5 nM.
In the case of `O=C(c1ccc(F)c(F)c1)N1CCC2(CC1)CN1CC[C@@H](c3cc(F)cc(F)c3)N1C2=O` [Example 4.24, (S)-1-(3,4-difluorobenzoyl)-7′-(3,5-difluorophenyl) dihydro-1′H,3′H,5′H-spiro[piperidine-4,2′-pyrazolo[1,2-a]pyrazol]-l′-one] it was 32 nM; in that of `Cn1nccc1-c1cc(N2CCC3(CC2)CN2CC[C@@H](c4cc(F)cc(F)c4)N2C3=O)ncn1` [Example 1.21, (S)-7′-(3,5-difluorophenyl)-1-(6-(1-methyl-1H-pyrazol-5-yl)pyrimidin-4-yl)dihydro-1′H,3′H,5′H-spiro[piperidine-4,2′-pyrazolo[1,2-a]pyrazol]-l′-one], 15 nM.
`O=C1N2[C@H](c3cc(F)cc(F)c3)CCN2CC12CCN(c1nnc(-c3ccccc3)o1)CC2` [Example 1.82, (S)-7′-(3,5-difluorophenyl)-1-(5-phenyl-1,3,4-oxadiazol-2-yl)dihydro-1′H,3′H,5′H-spiro[piperidine-4,2′-pyrazolo[1,2-a]pyrazol]-1′-one]: the EC50 turned out to be 333 nM.
For `O=C1N2[C@H](c3cc(F)cc(F)c3)CCN2CC12CCN(c1cc(Cl)ccn1)CC2` [Example 1.11, (7′S)-1-(4-chloropyridin-2-yl)-7′-(3,5-difluorophenyl)dihydro-1′H,3′H,5′H-spiro[piperidine-4,2′-pyrazolo[1,2-a]pyrazol]-1′-one], the EC50 was found to be 28 nM.
In the case of `O=C1N2[C@H](c3cc(F)cc(F)c3)CCN2CC12CCN(c1nccn3ncnc13)CC2` [Example 1.79, (S)-1-([1,2,4]triazolo[1,5-a]pyrazin-8-yl)-7′-(3,5-difluorophenyl)dihydro-1′H,3′H,5′H-spiro[piperidine-4,2′-pyrazolo[1,2-a]pyrazol]-1′-one] it was 30 nM.
The result for `CN(C)c1nc(Cl)cc(N2CCC3(CC2)CN2CC[C@@H](c4cc(F)cc(F)c4)N2C3=O)n1` [Example 1.30, (S)-1-(6-chloro-2-(dimethylamino)pyrimidin-4-yl)-7′-(3,5-difluorophenyl)dihydro-1′H,3′H,5′H-spiro[piperidine-4,2′-pyrazolo[1,2-a]pyrazol]-1′-one] reads 110 nM.
Consider `N#Cc1ccc(N2CCC3(CC2)CN2CC[C@@H](c4cc(F)cc(F)c4)N2C3=O)c2ccnn12` [Example 2.2, (S)-4-(7′-(3,5-difluorophenyl)-1′-oxodihydro-l′H,3′H,5′H-spiro[piperidine-4,2′-pyrazolo[1,2-a]pyrazol]-1-yl)pyrazolo[1,5-a]pyridine-7-carbonitrile], for which the concentration for a half-maximal effect (EC50) came to 9 nM.
In the case of `COc1nccc(N2CCC3(CC2)CN2CC[C@@H](c4cc(F)cc(F)c4)N2C3=O)n1` [Example 1.84, (S)-7′-(3,5-difluorophenyl)-1-(2-methoxypyrimidin-4-yl)dihydro-1′H,3′H,5′H-spiro[piperidine-4,2′-pyrazolo[1,2-a]pyrazol]-1′-one] it was 30 nM; in that of `O=C(c1ccncc1)N1CCC2(CC1)CN1CC[C@@H](c3cc(F)cc(F)c3)N1C2=O` [Example 4.5, (S)-7′-(3,5-difluorophenyl)-1-isonicotinoyldihydro-1′H,3′H,5′H-spiro[piperidine-4,2′-pyrazolo[1,2-a]pyrazol]-l′-one], 414 nM; in that of `COc1ccnc(N2CCC3(CC2)CN2CC[C@@H](c4cc(F)cc(F)c4)N2C3=O)n1` [Example 1.95, (S)-7′-(3,5-difluorophenyl)-1-(4-methoxypyrimidin-2-yl)dihydro-1′H,3′H,5′H-spiro[piperidine-4,2′-pyrazolo[1,2-a]pyrazol]-1′-one], 86 nM.
The result for `Cn1cnc(N2CCC3(CC2)CN2CC[C@@H](c4cc(F)cc(F)c4)N2C3=O)cc1=O` [Example 1.91, (S)-7′-(3,5-difluorophenyl)-1-(1-methyl-6-oxo-1,6-dihydropyrimidin-4-yl)dihydro-1′H,3′H,5′H-spiro [piperidine-4,2′-pyrazolo[1,2-a]pyrazol]-1′-one] reads 750 nM; that for `Cc1nccc(N2CCC3(CC2)CN2CC[C@@H](c4cc(F)cc(F)c4)N2C3=O)n1` [Example 1.45, (S)-7′-(3,5-difluorophenyl)-1-(2-methylpyrimidin-4-yl)dihydro-1′H,3′H,5′H-spiro[piperidine-4,2′-pyrazolo[1,2-a]pyrazol]-1′-one], 176 nM.
In the case of `O=C1N2[C@H](c3cc(F)cc(F)c3)CCN2CC12CCN(c1cc(C(F)F)ncn1)CC2` [Example 1.7, (7′S)-1-[6-(difluoromethyl)pyrimidin-4-yl]-7′-(3,5-difluorophenyl)dihydro-1′H,3′H,5′H-spiro [piperidine-4,2′-pyrazolo[1,2-a]pyrazol]-1′-one] it was 39 nM; in that of `Cc1c(F)cccc1C(=O)N1CCC2(CC1)CN1CC[C@@H](c3cc(F)cc(F)c3)N1C2=O` [Example 4.8, (S)-7′-(3,5-difluorophenyl)-1-(3-fluoro-2-methylbenzoyl)dihydro-1′H,3′H,5′H-spiro[piperidine-4,2′-pyrazolo[1,2-a]pyrazol]-l′-one], 158 nM.
Consider `CN(C)c1cc(Cl)nc(N2CCC3(CC2)CN2CC[C@@H](c4cc(F)cc(F)c4)N2C3=O)n1` [Example 1.61, (S)-1-(4-chloro-6-(dimethylamino)pyrimidin-2-yl)-7′-(3,5-difluorophenyl)dihydro-1′H,3′H,5′H-spiro[piperidine-4,2′-pyrazolo[1,2-a]pyrazol]-1′-one], for which the EC50 was 904 nM.
The result for `O=C(c1ccc(Cl)c(F)c1)N1CCC2(CC1)CN1CC[C@@H](c3cc(F)cc(F)c3)N1C2=O` [Example 4.23, (S)-1-(4-chloro-3-fluorobenzoyl)-7′-(3,5-difluorophenyl) dihydro-1′H,3′H,5′H-spiro[piperidine-4,2′-pyrazolo[1,2-a]pyrazol]-l′-one] reads 23 nM.

(Values after patent publication US20240425524A1, “SPIROTRICYCLE RIPK1 INHIBITORS AND METHODS OF USES THEREOF” (Merck Sharp & Dohme LLC, priority 2021, published 2024).)
